Data as given in patent US12636274B2, “Pharmaceutical compositions and methods for systemic treatment of solid tumors” (7 HILLS INTERESTS LLC, priority 2014, dated 2026).

Tests used:
[1] = Safety margin (STD 10) and autoimmune toxicity; conditions: in vivo
[2] = tested on: CD3+ CD8+ and CD3+ CD4+ tumor infiltrating T-cells; assay: Tumor infiltrating lymphocytes (TILs) by FACS in CT26 tumors; type: in vivo, Mouse (Mus musculus)
Experimental: On day 19 of treatment initiation tumors were isolated from study mice aseptically (n=5/group).
Tumor tissue was minced devoid of dead and necrotic tissue was mechanically disaggregated aseptically in RPMI medium without proteolytic enzymes in gentleMACS C-tubes using gentleMACS Octo Dissociator under the program 37C_m_TDK_1_30m (Miltenyi Biotec). Cell suspension was enriched for single cells by filtering the disaggregated mix through 70 μm cell strainer. Cells were pelleted at 300 g for 7 min at 4° C., washed twice with fresh complete media followed by FACS buffer containing PBS w/o calcium and magnesium (pH 7.4), 2% FBS and 0.05% sodium azide. Note: Proteolytic enzymes may chew up the antigen epitopes, therefore enzymatic dissociation is not performed.
Five million total viable cells were used as input for staining with the following fluorochrome conjugated antibodies for 30 min on ice in dark. Unbound stain was removed by washing cells in FACS buffer twice. […]
Unstained cells were used for setting up gates and focus single cells using INSPIRE acquisition software in Amnis FlowSight flow cytometer (Amnis Corporation, Seattle, WA) with 405, 488, 642 nm excitation lasers. […]
Before proceeding for FACS acquisition, we have recorded the total viable cell yield for each tumor sample. […] From the CD3 positive population gated out of viable 7AAD-ve population, the percentage of viable cells displaying CD3 positive signal was recorded using the statistics option in FACS software. […] Based on this information, yield per million cells was calculated and reported in results.
In addition, tumors were allowed to grow up to day 18 with continued Compound 1 dose, that decreased tumor growth resulting in a significant inhibition p<0.01 in the q.d. group compared to p<0.0001 in BID group. […] Upon non-enzymatic dissociation, cell viability was assessed and subjected to enumeration of CD3^+, CD4^+ or CD8^+ tumor infiltrating T-cells (detailed method, refer section 11).

aiibb3/Fibrinogen = aiibb3/Fibrinogen (Homo sapiens, UniProt P05106+P08514); assay: Integrin activation, adhesion aiibb3/Fibrinogen; type: cell-based; set-up: key: Not Active: Not active: ≤2 fold increase in adhesion; conditions: 50% serum; n = 3
Chain of aiibb3/Fibrinogen (P08514 32-887 limits assumed): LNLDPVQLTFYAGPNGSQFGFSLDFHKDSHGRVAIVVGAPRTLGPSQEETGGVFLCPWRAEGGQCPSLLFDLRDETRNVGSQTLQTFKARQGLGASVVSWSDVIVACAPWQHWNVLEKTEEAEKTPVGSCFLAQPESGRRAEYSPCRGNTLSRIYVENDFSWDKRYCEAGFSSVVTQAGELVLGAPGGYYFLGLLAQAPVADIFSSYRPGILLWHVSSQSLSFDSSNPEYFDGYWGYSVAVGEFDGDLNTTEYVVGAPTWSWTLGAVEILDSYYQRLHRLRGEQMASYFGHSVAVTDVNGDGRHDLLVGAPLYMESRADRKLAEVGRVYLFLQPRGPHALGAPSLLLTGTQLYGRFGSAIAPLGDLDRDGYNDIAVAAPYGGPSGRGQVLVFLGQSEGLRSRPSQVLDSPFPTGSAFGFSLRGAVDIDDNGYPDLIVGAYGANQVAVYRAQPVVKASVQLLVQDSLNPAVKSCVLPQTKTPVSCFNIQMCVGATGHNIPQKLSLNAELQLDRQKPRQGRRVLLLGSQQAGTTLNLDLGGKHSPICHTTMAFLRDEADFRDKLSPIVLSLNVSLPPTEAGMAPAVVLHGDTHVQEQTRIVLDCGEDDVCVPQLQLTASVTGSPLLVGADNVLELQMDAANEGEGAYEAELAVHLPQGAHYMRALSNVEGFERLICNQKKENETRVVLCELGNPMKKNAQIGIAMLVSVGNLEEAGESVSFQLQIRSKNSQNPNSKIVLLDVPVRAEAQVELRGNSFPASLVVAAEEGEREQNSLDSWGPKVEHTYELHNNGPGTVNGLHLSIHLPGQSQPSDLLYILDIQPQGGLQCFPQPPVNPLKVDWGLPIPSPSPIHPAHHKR
Chain of aiibb3/Fibrinogen (P08514 891-1039 limits assumed): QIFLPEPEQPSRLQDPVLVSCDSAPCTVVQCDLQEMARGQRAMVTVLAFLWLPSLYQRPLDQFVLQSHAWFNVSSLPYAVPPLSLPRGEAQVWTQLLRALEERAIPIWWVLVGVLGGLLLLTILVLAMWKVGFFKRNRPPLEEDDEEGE
Chain of aiibb3/Fibrinogen (P05106 27-788): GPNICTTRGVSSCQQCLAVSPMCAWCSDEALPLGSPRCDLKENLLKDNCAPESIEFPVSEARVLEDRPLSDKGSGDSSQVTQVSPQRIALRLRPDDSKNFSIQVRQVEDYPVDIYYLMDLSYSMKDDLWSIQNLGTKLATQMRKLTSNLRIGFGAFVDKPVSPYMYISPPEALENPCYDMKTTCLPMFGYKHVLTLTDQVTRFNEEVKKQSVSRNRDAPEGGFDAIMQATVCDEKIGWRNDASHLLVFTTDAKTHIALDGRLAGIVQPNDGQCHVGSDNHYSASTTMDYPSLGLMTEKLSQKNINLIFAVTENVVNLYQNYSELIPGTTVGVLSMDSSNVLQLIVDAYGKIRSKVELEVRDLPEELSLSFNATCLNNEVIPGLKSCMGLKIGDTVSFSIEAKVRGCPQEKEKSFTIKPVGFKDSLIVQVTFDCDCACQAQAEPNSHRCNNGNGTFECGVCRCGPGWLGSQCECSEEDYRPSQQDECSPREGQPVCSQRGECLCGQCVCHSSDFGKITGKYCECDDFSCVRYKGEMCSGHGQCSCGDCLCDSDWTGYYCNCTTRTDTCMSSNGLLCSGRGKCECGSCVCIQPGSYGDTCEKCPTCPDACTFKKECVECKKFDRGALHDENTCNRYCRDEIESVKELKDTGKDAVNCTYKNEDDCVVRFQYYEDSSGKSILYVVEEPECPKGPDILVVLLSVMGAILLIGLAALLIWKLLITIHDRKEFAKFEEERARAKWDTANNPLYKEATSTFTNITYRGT
Description: Activating all integrins is necessary for firm endothelial cell adhesion for extravasation.

[3] = tested on: CT26 colon cancer syngeneic tumor; assay: Study 1: CT26 syngeneic tumor model in Balb/c mice; type: in vivo, Mouse (Mus musculus)
Experimental: Mouse colon carcinoma CT26 cells were obtained from American Type Culture Collection (ATCC), USA. Cells were grown in RPMI-1640 medium (Sigma, Cat # R6504) supplemented with 10% FBS (Invitrogen, Cat #10438-026), and 1% penicillin streptomycin (Thermo Fisher Scientific, Cat #15140-122). To establish allografts, 1 million CT26 cells were suspended in 50 μL of serum-free medium and mixed at 1:1 ratio with matrigel before implanting subcutaneously into the right flank of mice.
Prior to inoculation, the skin on the injection site was swabbed with alcohol. To establish allografts, CT26 cells were suspended in serum free medium at a concentration of (1×10^6)/50 μL, mixed with equal volume of matrigel (1:1 ratio) and 100 μL of this mixture was injected to each mouse by subcutaneous implantation using a 1 mL BD syringe attached to a 24 gauge needle.
CT26 tumor xenografts were measured after approximately 1 week of cell inoculation when they become palpable. When the average tumor volume reaches around 110 mm^3, animals were randomized into treatment groups group maintaining the average tumor volume of each group similar across groups for Study 1 and Study 2. In Study 3, the animals were randomized on the basis of body weights +1 day post cell implantation.
Tumor dimensions (length and breadth) were measured on days 0 (animal randomization based on tumor volume) and thrice weekly thereafter until study termination. Tumor volumes were calculated using the formula (b^2*l)*0.52 where l=length, b=breadth (Dusan Djokovic et al., BMC Cancer, 2010, 10:641). Tumor growth inhibition was calculated after normalizing the tumor volume on a given day to that on day 1.
Mean body weight loss and percent changes were calculated for each group. Similarly, mean tumor volume and percent tumor growth inhibition were calculated. The percent tumor growth inhibition (% TGI) as a function of anti-tumor efficacy were computed with respect to untreated vehicle control by comparing to the tumor volumes of day 1 using formula described below: % TGI=[1−(Treatment TVFinal−Treatment TVInitial)/(Control TVFinal−Control TVInitial)]*100
The test agent, Compound 1 was evaluated in CT26 syngeneic tumor model in Balb/c mice. Compound 1 was administered in mice when the starting tumor volume reached 109±7.1 mm^3 eight days after implantation of CT26 cells.

Structure (SMILES): O=C(OCCOCCOCCOC(=O)N(Cc1cccs1)Cc1cccs1)N(Cc1cccs1)Cc1cccs1 [Compound 1, 3-oxo-1-(2-thienyl)-2-(2-thienylmethyl)-4,7,10-trioxa-2-azadodecan-12-yl bis(2-thienylmethyl)carbamate]
- autoimmune toxicity [1]: no autoimmune toxicity
- safety margin (STD 10) [1]: > 300 times therapeutic exposure
- CD3+ and CD4+ double positive cells in tumor ([2]; Study 3, day 19, compared to vehicle control): decreased trend
- CD3+ and CD8+ double positive T-cells in tumor ([2]; Study 3, day 19, compared to vehicle control, opposite to the decreased CD3+ CD4+ trend): trend was opposite
- ratio of CD8+/CD4+ T-cells in tumors ([2]; single agent, in response to treatment): progressive increase
- Integrin Selectivity EC50 aiibb3/Fibrinogen (aiibb3/Fibrinogen): Not Active
- % Tumor Growth Inhibition ([3]; Study 1, 1 mg/kg IP QD at 4 h, Day 4): 36.1%
- % Tumor Growth Inhibition ([3]; Study 1, 1 mg/kg IP QD at 4 h, Day 6): 41.4%
- % Tumor Growth Inhibition ([3]; Study 1, 1 mg/kg IP QD at 4 h, Day 8): 61.5%
- % Tumor Growth Inhibition ([3]; Study 1, 1 mg/kg IP QD at 4 h, Day 11): 64.4%
- % Tumor Growth Inhibition ([3]; Study 1, 1 mg/kg IP QD at 4 h, Day 13): 55.4%
- % Tumor Growth Inhibition ([3]; Study 1, 20 mg/kg PO QD at 4 h, Day 4): −6.1%
- % Tumor Growth Inhibition ([3]; Study 1, 20 mg/kg PO QD at 4 h, Day 6): 16.5%
- % Tumor Growth Inhibition ([3]; Study 1, 20 mg/kg PO QD at 4 h, Day 8): 38.2%
- % Tumor Growth Inhibition ([3]; Study 1, 20 mg/kg PO QD at 4 h, Day 11): 42.2%
- % Tumor Growth Inhibition ([3]; Study 1, 20 mg/kg PO QD at 4 h, Day 13): 36.2%
- tolerability in term of body weights of animals ([3]; Study 1, oral (20 mg/kg QD) and intraperitoneal (1 mg/kg QD) routes): well tolerated
- growth of established CT26 tumors ([3]; single agent, orally or intraperitoneally once daily for up to 30 days): delayed the growth
